Assay results as given in EP0834302A1, “Compositions comprising glutathione liposomes” (Boehringer Ingelheim Limited, priority 1996, dated 1998).

Legend:
[1] = Depth of glutathione penetration into the skin: tape stripping with DPPH anti-free radical assay
Protocol: The depth of glutathione penetration into the skin was determined by comparing two different galenic forms: free glutathione in solution (FG) and glutathione encapsulated in a liposome (LG). Since glutathione is a highly reactive free radical scavenger, its presence even in small quantities can be detected by spectroscopic methods.
Gluthione preparations are applied to the skin, and tape strippings are taken after some fixed interval of time. The tape strippings are assayed for anti-free radical activity by DPPH (1,1 Diphenyl-2-picrylhydrazyl) at 8.76 x 10^-3 % (w/v) in methanol) colouration/ discolouration tests (Kim et al. Proc. 17th IFSCC Congress (Yokohama), Vol. 1: 3-14, 1994). […]
On the arms of each volunteer, the 3 test sites were determined in a random way: one site for application of water (negative control), one for application of free glutathione (FG) and one for application of liposome encapsulated glutathione (LG). […]
5 tape strippings were carried out on the control sites after 2µl/cm^2 application of distilled water and a light massage. […] The change in colour was measured on a spectrophotometer at 517nm.
Each test solution was then applied to the designated sites (2µl/cm^2) by slight massaging and left to dry for 30 minutes. […] Colour changes were recorded as described above.

[2] = system: UVB induced skin erythema; conditions: applied topically in a simple oil-in-water emulsion or as a gel preparation; Int. J. Cos. Sci. 17:91-103, 1995; cited from earlier work

SMILES | Tape strips containing residual scavenger activity, Mean value ([1]; in vivo) | depth of penetration ([1]; result in words, presence of DPPH reactive substances on successive strips) | inhibiting UVB induced skin erythema [2]
N[C@@H](CCC(=O)N[C@@H](CS)C(=O)NCC(=O)O)C(=O)O [FG, Reduced glutathione] | 1.3 | absence of significant penetration | 
N[C@@H](CCC(=O)N[C@@H](CS)C(=O)NCC(=O)O)C(=O)O [Glutathione] |  |  | ineffective
